Reference: PubChem BioAssay AID256 (DTP/NCI, 2004)
Where “and” joins values, the source holds several entries; their conditions need not be identical. Equal values may be shown once. Inconclusive results and toxic doses are left out. The calls were made as follows: active = survival T/C of 150% or more; inactive = T/C below 125% in these data.

Tested on: CD2F1 mice, L1210 leukemia ip, survival T/C
Test: NCI In Vivo Anticancer Drug Screen. Data for tumor model L1210 Leukemia (intraperitoneal) in CD2F1 (CDF1) mice
Settings: higher = longer survival
How it was run: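 Ratio T/C, where T is the treated-group value and C the vehicle-dosed control value, from mice implanted with a transplantable tumor.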

[1] = endpoint: mean survival time, dose: 100.0 mg/kg/injection, schedule: Q01DX009 (ip), vehicle: saline with Tween-80
[2] = endpoint: mean survival time, dose: 100.0 mg/kg/injection, schedule: Q04DX003 (ip), vehicle: saline with Tween-80
[3] = endpoint: mean survival time, dose: 200.0 mg/kg/injection, schedule: Q04DX003 (ip), vehicle: saline with Tween-80
[4] = endpoint: mean survival time, dose: 400.0 mg/kg/injection, schedule: Q04DX003 (ip), vehicle: saline with Tween-80
[5] = endpoint: mean survival time, dose: 100.0 mg/kg/injection, schedule: Q04DX003 (ip), vehicle: Klucel (hydroxypropylcellulose) (HPC)
[6] = endpoint: mean survival time, dose: 200.0 mg/kg/injection, schedule: Q04DX003 (ip), vehicle: Klucel (hydroxypropylcellulose) (HPC)
[7] = endpoint: mean survival time, dose: 200.0 mg/kg/injection, schedule: Q01DX009 (ip), vehicle: saline with Tween-80
[8] = endpoint: mean survival time, dose: 100.0 mg/kg/injection, schedule: Q04DX002 (ip), vehicle: saline with Tween-80

Measured: T/C

Cc1ccc(Cl)cc1NC(=O)CCl
inactive: endpoint: mean survival time, dose: 25.0 mg/kg/injection, schedule: Q01DX009 (ip), vehicle: saline with Tween-80 94 % of control | endpoint: mean survival time, dose: 50.0 mg/kg/injection, schedule: Q01DX009 (ip), vehicle: saline with Tween-80 94 % of control | [1] 89 % of control and 96 % of control | [2] 101 % of control | [3] 95 % of control | [4] 97 % of control

O=C1NC(CN2CCCCC2)C(=O)NC1CN1CCCCC1 (configuration not stated)
inactive: endpoint: mean survival time, dose: 3.13 mg/kg/injection, schedule: Q01DX009 (ip), vehicle: water 98 % of control | endpoint: mean survival time, dose: 6.25 mg/kg/injection, schedule: Q01DX009 (ip), vehicle: water 98 % of control | endpoint: mean survival time, dose: 12.5 mg/kg/injection, schedule: Q01DX009 (ip), vehicle: water 105 % of control | endpoint: mean survival time, dose: 25.0 mg/kg/injection, schedule: Q01DX009 (ip), vehicle: water 103 % of control | endpoint: mean survival time, dose: 50.0 mg/kg/injection, schedule: Q01DX009 (ip), vehicle: water 98 % of control | endpoint: mean survival time, dose: 100.0 mg/kg/injection, schedule: Q01DX009 (ip), vehicle: water 105 % of control

CCOC(=O)c1cc(=O)c2cc(S(=O)(=O)F)ccc2[nH]1
inactive: [5] 103 % of control | [6] 103 % of control | endpoint: mean survival time, dose: 400.0 mg/kg/injection, schedule: Q04DX003 (ip), vehicle: Klucel (hydroxypropylcellulose) (HPC) 100 % of control

CN(C)N=Nc1ccccc1C(=O)NNC(N)=S
inactive: endpoint: mean survival time, dose: 18.75 mg/kg/injection, schedule: Q01DX009 (ip), vehicle: Klucel (hydroxypropylcellulose) (HPC) 98 % of control and 103 % of control | endpoint: mean survival time, dose: 37.5 mg/kg/injection, schedule: Q01DX009 (ip), vehicle: Klucel (hydroxypropylcellulose) (HPC) 121 % of control and 101 % of control | endpoint: mean survival time, dose: 75.0 mg/kg/injection, schedule: Q01DX009 (ip), vehicle: Klucel (hydroxypropylcellulose) (HPC) 107 % of control and 109 % of control | endpoint: mean survival time, dose: 150.0 mg/kg/injection, schedule: Q01DX009 (ip), vehicle: Klucel (hydroxypropylcellulose) (HPC) 115 % of control and 116 % of control | endpoint: mean survival time, dose: 300.0 mg/kg/injection, schedule: Q01DX009 (ip), vehicle: Klucel (hydroxypropylcellulose) (HPC) 104 % of control and 107 % of control

BrCCOc1ccccc1
inactive: endpoint: mean survival time, dose: 100.0 mg/kg/injection, schedule: Q04DX003 (ip), vehicle: other 108 % of control | endpoint: mean survival time, dose: 200.0 mg/kg/injection, schedule: Q04DX003 (ip), vehicle: other 97 % of control | endpoint: mean survival time, dose: 400.0 mg/kg/injection, schedule: Q04DX003 (ip), vehicle: other 86 % of control

O=C(NCC1CCCC1)c1ccccc1
inactive: endpoint: mean survival time, dose: 100.0 mg/kg/injection, schedule: Q01DX001 (ip), vehicle: saline 95 % of control | endpoint: mean survival time, dose: 200.0 mg/kg/injection, schedule: Q01DX001 (ip), vehicle: saline 97 % of control | endpoint: mean survival time, dose: 400.0 mg/kg/injection, schedule: Q01DX001 (ip), vehicle: saline 89 % of control

COc1cccc(N2C(=O)CSC2=S)c1
inactive: [2] 107 % of control | [3] 96 % of control | [4] 106 % of control

O=C(c1ccccc1)C(C(O)CCl)C(O)(C(F)(F)F)C(F)(F)F (configuration not stated)
inactive: [1] 94 % of control | [7] 94 % of control

O=C(Cn1cc[n+](CC(=O)c2ccccc2)c1)c1ccccc1
inactive: [2] 109 % of control

NNC(=O)CNc1cccc(Br)c1
inactive: endpoint: mean survival time, dose: 12.5 mg/kg/injection, schedule: Q01DX009 (ip), vehicle: Klucel (hydroxypropylcellulose) (HPC) 98 % of control | endpoint: mean survival time, dose: 25.0 mg/kg/injection, schedule: Q01DX009 (ip), vehicle: Klucel (hydroxypropylcellulose) (HPC) 101 % of control | endpoint: mean survival time, dose: 50.0 mg/kg/injection, schedule: Q01DX009 (ip), vehicle: Klucel (hydroxypropylcellulose) (HPC) 101 % of control | endpoint: mean survival time, dose: 50.0 mg/kg/injection, schedule: Q04DX003 (ip), vehicle: Klucel (hydroxypropylcellulose) (HPC) 101 % of control | endpoint: mean survival time, dose: 100.0 mg/kg/injection, schedule: Q01DX001 (ip), vehicle: Klucel (hydroxypropylcellulose) (HPC) 102 % of control | endpoint: mean survival time, dose: 100.0 mg/kg/injection, schedule: Q01DX009 (ip), vehicle: Klucel (hydroxypropylcellulose) (HPC) 97 % of control | [5] 98 % of control | endpoint: mean survival time, dose: 200.0 mg/kg/injection, schedule: Q01DX001 (ip), vehicle: Klucel (hydroxypropylcellulose) (HPC) 98 % of control | [6] 111 % of control

CCCCOP(=O)(OCCCC)OC(=C(Cl)Cl)P(=O)(OCCCC)OCCCC
inactive: endpoint: mean survival time, dose: 100.0 mg/kg/injection, schedule: Q04DX002 (ip), vehicle: saline 89 % of control | endpoint: mean survival time, dose: 200.0 mg/kg/injection, schedule: Q04DX002 (ip), vehicle: saline 92 % of control

Oc1ccc(Nc2c3ccccc3nc3c2ccc2ccccc23)cc1CN(CCCl)CCCl
inactive: endpoint: mean survival time, dose: 6.25 mg/kg/injection, schedule: Q01DX009 (ip), vehicle: saline 91 % of control

Cc1cc(C)c(C(=O)CN2CCOCC2)c(C)c1
inactive: [2] 98 % of control | [3] 101 % of control | [4] 95 % of control

O=C(CCCCl)Oc1ccccc1
inactive: [2] 87 % of control | [3] 87 % of control | [4] 103 % of control

O=[N+]([O-])c1cccc2c1cc([N+](=O)[O-])c1cccnc12
inactive: endpoint: mean survival time, dose: 25.0 mg/kg/injection, schedule: Q04DX002 (ip), vehicle: saline with Tween-80 98 % of control | endpoint: mean survival time, dose: 50.0 mg/kg/injection, schedule: Q04DX002 (ip), vehicle: saline with Tween-80 98 % of control | [8] 98 % of control

CC(C)(C)[CH2][Sn]([Cl])([CH2]C(C)(C)C)[CH2]C(C)(C)C
inactive: endpoint: mean survival time, dose: 3.13 mg/kg/injection, schedule: Q04DX002 (ip), vehicle: saline with Tween-80 97 % of control | endpoint: mean survival time, dose: 6.25 mg/kg/injection, schedule: Q04DX002 (ip), vehicle: saline with Tween-80 101 % of control | endpoint: mean survival time, dose: 12.5 mg/kg/injection, schedule: Q04DX002 (ip), vehicle: saline with Tween-80 103 % of control

COc1ccccc1C1=CCCCCC1
inactive: [1] 107 % of control | [7] 107 % of control

N#Cc1c(Cl)cc(C2(O)C3C=CC2CC3)cc1Cl (configuration not stated)
inactive: endpoint: median survival time, dose: 25.0 mg/kg/injection, schedule: Q04DX002 (ip), vehicle: saline with Tween-80 112 % of control | endpoint: median survival time, dose: 50.0 mg/kg/injection, schedule: Q04DX002 (ip), vehicle: saline with Tween-80 100 % of control | endpoint: median survival time, dose: 100.0 mg/kg/injection, schedule: Q04DX002 (ip), vehicle: saline with Tween-80 100 % of control | endpoint: median survival time, dose: 200.0 mg/kg/injection, schedule: Q04DX002 (ip), vehicle: saline with Tween-80 112 % of control

O=S(=O)(Nc1ccc2c3c(cccc13)C=C2)c1ccccc1
inactive: [2] 98 % of control | [3] 98 % of control | [4] 98 % of control

CN1CCC(O)(C#N)CC1
inactive: endpoint: mean survival time, dose: 3.75 mg/kg/injection, schedule: Q04DX003 (ip), vehicle: saline 102 % of control | endpoint: mean survival time, dose: 7.5 mg/kg/injection, schedule: Q04DX003 (ip), vehicle: saline 102 % of control | endpoint: mean survival time, dose: 15.0 mg/kg/injection, schedule: Q04DX003 (ip), vehicle: saline 100 % of control

COc1ccccc1NC(=O)Oc1ccc(SC)c(C)c1
inactive: [8] 100 % of control | endpoint: mean survival time, dose: 200.0 mg/kg/injection, schedule: Q04DX002 (ip), vehicle: saline with Tween-80 95 % of control | endpoint: mean survival time, dose: 400.0 mg/kg/injection, schedule: Q04DX002 (ip), vehicle: saline with Tween-80 95 % of control

C1CCC2C(C1)NC1CCCCC12 (configuration not stated)
inactive: endpoint: mean survival time, dose: 25.0 mg/kg/injection, schedule: Q01DX009 (ip), vehicle: saline 89 % of control | endpoint: mean survival time, dose: 50.0 mg/kg/injection, schedule: Q01DX009 (ip), vehicle: saline 89 % of control

CCCCCCCCCCNC(=O)C[n+]1cccc(C(=O)N(C)C)c1
inactive: endpoint: mean survival time, dose: 12.5 mg/kg/injection, schedule: Q01DX009 (ip), vehicle: saline sonified 100 % of control | endpoint: mean survival time, dose: 12.5 mg/kg/injection, schedule: Q04DX003 (ip), vehicle: saline 95 % of control | endpoint: mean survival time, dose: 25.0 mg/kg/injection, schedule: Q01DX009 (ip), vehicle: saline sonified 97 % of control | endpoint: mean survival time, dose: 25.0 mg/kg/injection, schedule: Q04DX003 (ip), vehicle: saline 97 % of control | endpoint: mean survival time, dose: 50.0 mg/kg/injection, schedule: Q01DX009 (ip), vehicle: saline sonified 102 % of control | endpoint: mean survival time, dose: 50.0 mg/kg/injection, schedule: Q04DX003 (ip), vehicle: saline 101 % of control

NC(=O)CC(C1SCCCS1)N1C(=O)OC2C(O)C(CO)OC21 (configuration not stated)
inactive: endpoint: mean survival time, dose: 10.94 mg/kg/injection, schedule: Q01DX005 (ip), vehicle: water 100 % of control | endpoint: mean survival time, dose: 21.88 mg/kg/injection, schedule: Q01DX005 (ip), vehicle: water 93 % of control | endpoint: mean survival time, dose: 43.75 mg/kg/injection, schedule: Q01DX005 (ip), vehicle: water 98 % of control | endpoint: mean survival time, dose: 87.5 mg/kg/injection, schedule: Q01DX005 (ip), vehicle: water 100 % of control | endpoint: mean survival time, dose: 175.0 mg/kg/injection, schedule: Q01DX005 (ip), vehicle: water 90 % of control

COc1ccc(NC(=O)c2ccc(C(=O)Nc3ccc(OC)cc3)cc2)cc1
inactive: endpoint: mean survival time, dose: 100.0 mg/kg/injection, schedule: Q01DX009 (ip), vehicle: saline 96 % of control | endpoint: mean survival time, dose: 200.0 mg/kg/injection, schedule: Q01DX009 (ip), vehicle: saline 90 % of control | endpoint: mean survival time, dose: 400.0 mg/kg/injection, schedule: Q01DX009 (ip), vehicle: saline 98 % of control
